Consider 14 compounds from ChEMBL document CHEMBL2057070, “Discovery of a novel azaindole class of antibacterial agents targeting the ATPase domains of DNA gyrase and Topoisomerase IV” (Bioorg Med Chem Lett, 2012).

Values after ≈ are worked out from the molar mass of the structure shown.

A short description of data set [1]: Lipophilicity, log D of the compound. The note with it: octanol/water.
For data set [2], the system named is Staphylococcus aureus. Kind of data set: Antibacterial activity against methicillin-sensitive Staphylococcus aureus. It counts as functional.
Another data set has as its system Streptococcus pneumoniae. The experiment in a line: Antibacterial activity against Streptococcus pneumoniae ARC548. Format: functional.
The subject of data set [3] is Staphylococcus aureus. The experiment in a line: Antibacterial activity against methicillin-, quinolone-resistant Staphylococcus aureus. It counts as functional.
The target in another data set is DNA gyrase subunit B (Staphylococcus aureus, UniProt P0A0K8). The experiment in a line: Inhibition of Staphylococcus aureus DNA gyrase B expressed in Escherichia coli BL21(DE3) cells assessed ATP hydrolysis activity […] by malachite green reagent assay.
Chain of DNA gyrase subunit B (P0A0K8 whole entry): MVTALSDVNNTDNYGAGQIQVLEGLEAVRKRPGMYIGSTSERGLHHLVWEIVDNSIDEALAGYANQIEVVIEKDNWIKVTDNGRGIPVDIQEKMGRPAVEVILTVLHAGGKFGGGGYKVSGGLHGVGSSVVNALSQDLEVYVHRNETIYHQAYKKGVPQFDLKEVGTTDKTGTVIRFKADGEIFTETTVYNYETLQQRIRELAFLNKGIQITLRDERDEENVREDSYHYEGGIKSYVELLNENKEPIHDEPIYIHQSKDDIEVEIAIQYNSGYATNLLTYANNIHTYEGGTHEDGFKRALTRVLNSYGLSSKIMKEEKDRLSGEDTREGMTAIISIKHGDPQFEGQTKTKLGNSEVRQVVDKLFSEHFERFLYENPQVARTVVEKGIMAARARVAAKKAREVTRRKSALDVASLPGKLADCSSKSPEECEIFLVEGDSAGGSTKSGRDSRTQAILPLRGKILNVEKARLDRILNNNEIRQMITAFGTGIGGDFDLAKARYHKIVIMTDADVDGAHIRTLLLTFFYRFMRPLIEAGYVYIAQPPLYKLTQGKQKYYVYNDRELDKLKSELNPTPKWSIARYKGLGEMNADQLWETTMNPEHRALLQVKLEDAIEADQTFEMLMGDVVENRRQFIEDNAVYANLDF
The nature of data set [4]: Inhibition of Streptococcus pneumoniae DNA Topoisomerase 4 subunit ParE.
Data set [5] in a line: Ratio of IC50 for Staphylococcus aureus DNA gyrase B to IC50 for Streptococcus pneumoniae Topoisomerase ParE.

What is called logD is the decadic logarithm of the distribution of all forms, ionised or not, between an organic phase and buffer at a given pH. Higher therefore signals higher lipophilicity. One may read the MIC as the smallest concentration in the dilution series that meets the test's criterion for growth inhibition. Low readings indicate inhibition by little substance, high ones a need for much substance. On to `CCNC(=O)c1cc2c(-n3ccc(C(F)(F)F)n3)c(-c3cncc(C(=O)O)c3)cnc2[nH]1`, for which the logD in data set [1] was -0.99. Besides, the MIC with Staphylococcus aureus [2] is over 25 µM; in the data set on Streptococcus pneumoniae, 6.25 µM (≈ 2.78 µg/mL).

By IC50 is commonly meant the concentration that inhibits the measured activity by half. Low readings indicate greater potency in that assay, high ones weaker potency in that assay. `CCNC(=O)c1cc2c(-n3ccc(C(F)(F)F)n3)c(-c3cncc(-c4n[nH]c(=O)o4)c3)cnc2[nH]1` came in with a pH-dependent lipophilicity (logD) in data set [1] of 1.65. For the same compound, the MIC against Staphylococcus aureus [3] is 1.1 µM (≈ 0.533 µg/mL); against Staphylococcus aureus [2], 0.4 µM (≈ 0.194 µg/mL); against Streptococcus pneumoniae it was under 0.03 µM. In addition, the concentration for half-maximal inhibition (IC50) at DNA gyrase subunit B was under 1 nM; in data set [4], 3 nM.

As to `O=C(O)/C=C/c1cccc(-c2cnc3[nH]ccc3c2)c1`, the logD in data set [1] is 0.58. Besides, the MIC was over 200 µM against Staphylococcus aureus [2] and 200 µM (≈ 52.9 µg/mL) with Streptococcus pneumoniae.

`CC(C)NC(=O)c1cc2c(-n3ccc(C(F)(F)F)n3)c(-c3cncc(C(=O)O)c3)cnc2[nH]1` had a logD in data set [1] of -0.62. In addition, the MIC with Staphylococcus aureus [2] and against Streptococcus pneumoniae was over 25 µM each time. Besides, the half-inhibitory concentration (IC50) at DNA gyrase subunit B was 147 nM; in data set [4] it was 44 nM.

For the compound `CCNC(=O)c1cc2c(-n3ccc(C(F)(F)F)n3)c(-c3cnc(OC)c(-c4n[nH]c(=O)o4)c3)cnc2[nH]1`, the MIC was 1.56 µM (≈ 0.803 µg/mL) in the data set with Staphylococcus aureus [3], 0.78 µM (≈ 0.401 µg/mL) in the data set on Staphylococcus aureus [2] and under 0.03 µM against Streptococcus pneumoniae. Moreover, the IC50 against DNA gyrase subunit B came out at 4 nM; in data set [4], 3 nM.

Consider `CO[C@@H]1[C@@H](OC(N)=O)[C@@H](O)[C@H](Oc2ccc3c(O)c(NC(=O)c4ccc(O)c(CC=C(C)C)c4)c(=O)oc3c2C)OC1(C)C` [NOVOBIOCIN], for which the minimum inhibitory concentration (MIC) is 0.39 µM (≈ 0.239 µg/mL) with Staphylococcus aureus [3], 0.39 µM (≈ 0.239 µg/mL) with Staphylococcus aureus [2] and 0.78 µM (≈ 0.478 µg/mL) with Streptococcus pneumoniae.

`CCNC(=O)c1cc2c(-n3ccc(C(F)(F)F)n3)c(-c3cncc(C#N)c3)cnc2[nH]1` showed a log distribution coefficient (logD) in data set [1] of 2.62. Besides, the MIC was found to be 1.56 µM (≈ 0.664 µg/mL) in the data set on Staphylococcus aureus [3], 3.13 µM (≈ 1.33 µg/mL) with Staphylococcus aureus [2] and 0.2 µM (≈ 0.0851 µg/mL) with Streptococcus pneumoniae. Besides, the 50% inhibitory concentration (IC50) against DNA gyrase subunit B is 23 nM; in data set [4] it was 10 nM.

As to `CCNC(=O)c1cc2c(-n3ccc(C(F)(F)F)n3)c(-c3cc(-c4n[nH]c(=O)o4)cnc3OC)cnc2[nH]1`, the logD in data set [1] is 2.91. Moreover, the minimum inhibitory concentration (MIC) was 0.2 µM (≈ 0.103 µg/mL) with Staphylococcus aureus [3], 0.098 µM (≈ 0.0504 µg/mL) with Staphylococcus aureus [2] and under 0.02 µM against Streptococcus pneumoniae. For the same compound, the figures for the IC50 (on DNA gyrase subunit B; in data set [4]) were 2 nM and 3 nM, respectively.

For `CCNC(=O)c1cc2c(-n3ccc(C(F)(F)F)n3)c(-c3cncc(C(N)=O)c3)cnc2[nH]1`, the minimal inhibitory concentration (MIC) in the data set with Staphylococcus aureus [3] is over 25 µM; in the data set with Staphylococcus aureus [2] it was 25 µM (≈ 11.1 µg/mL); in the data set on Streptococcus pneumoniae, 0.2 µM (≈ 0.0887 µg/mL).

On to `C[C@H]1COc2c(N3CCN(C)CC3)c(F)cc3c(=O)c(C(=O)O)cn1c23` [LEVOFLOXACIN], for which the minimal inhibitory concentration (MIC) with Staphylococcus aureus [3] was over 25 µM; against Staphylococcus aureus [2], 0.78 µM (≈ 0.282 µg/mL); against Streptococcus pneumoniae, 3.13 µM (≈ 1.13 µg/mL).

On to `CCNC(=O)c1cc2c(-n3ccc(C(F)(F)F)n3)c(-c3cncc(C(=O)NC)c3)cnc2[nH]1`, for which, in data set [1], the logD stood at 2.21. Further, the MIC in the data set with Staphylococcus aureus [3] stood at 12.5 µM (≈ 5.72 µg/mL); against Staphylococcus aureus [2], 6.25 µM (≈ 2.86 µg/mL); in the data set with Streptococcus pneumoniae, 0.098 µM (≈ 0.0448 µg/mL). For the same compound, the half-inhibitory concentration (IC50) at DNA gyrase subunit B worked out at 11 nM; in data set [4], 16 nM.

In data set [1], `CCNC(=O)c1cc2c(-n3nc(C(F)(F)F)cc3C)c(-c3cncc(C(=O)O)c3)cnc2[nH]1` gave a logD of -0.88. Besides, the MIC against Staphylococcus aureus [2] was over 25 µM; in the data set on Streptococcus pneumoniae, 12.5 µM (≈ 5.73 µg/mL). The IC50 against DNA gyrase subunit B was 133 nM; in data set [4] it was 65 nM.

With `CCCNC(=O)c1cc2c(-n3ccc(C(F)(F)F)n3)c(-c3cncc(C(=O)O)c3)cnc2[nH]1`, the log distribution coefficient (logD) in data set [1] was -0.79. The MIC in the data set with Staphylococcus aureus [2] and in the data set with Streptococcus pneumoniae was over 25 µM each time. Moreover, the IC50 turned out to be 58 nM against DNA gyrase subunit B and 45 nM in data set [4].

Consider `O=C(O)c1cncc(-c2cnc3[nH]c(C(=O)NC4CC4)cc3c2-n2ccc(C(F)(F)F)n2)c1`, for which, in data set [1], the log distribution coefficient (logD) is -0.98. For the same compound, the Ratio IC50 in data set [5] was over 3. Further, the values for the minimal inhibitory concentration (MIC) against Staphylococcus aureus [2] and in the data set with Streptococcus pneumoniae were over 25 µM and 25 µM (≈ 11.4 µg/mL), respectively. Moreover, the half-maximal inhibitory concentration (IC50) on DNA gyrase subunit B is 39 nM; in data set [4], 6 nM.
